The record followed here is paper PMC11975020, “Chemoproteomic analysis reveals RECQL4 as a mediator of nitroalkene-dependent double-strand break repair inhibition in cancer” (Research Square, 2025).

Molecules are shown by their SMILES.

The test has as its target T1, RECQL4 (Homo sapiens, UniProt O94761).
T1 construct: RECQL4^449–1111 (lacking the N-terminus)
T1 sequence (O94761 449-1111): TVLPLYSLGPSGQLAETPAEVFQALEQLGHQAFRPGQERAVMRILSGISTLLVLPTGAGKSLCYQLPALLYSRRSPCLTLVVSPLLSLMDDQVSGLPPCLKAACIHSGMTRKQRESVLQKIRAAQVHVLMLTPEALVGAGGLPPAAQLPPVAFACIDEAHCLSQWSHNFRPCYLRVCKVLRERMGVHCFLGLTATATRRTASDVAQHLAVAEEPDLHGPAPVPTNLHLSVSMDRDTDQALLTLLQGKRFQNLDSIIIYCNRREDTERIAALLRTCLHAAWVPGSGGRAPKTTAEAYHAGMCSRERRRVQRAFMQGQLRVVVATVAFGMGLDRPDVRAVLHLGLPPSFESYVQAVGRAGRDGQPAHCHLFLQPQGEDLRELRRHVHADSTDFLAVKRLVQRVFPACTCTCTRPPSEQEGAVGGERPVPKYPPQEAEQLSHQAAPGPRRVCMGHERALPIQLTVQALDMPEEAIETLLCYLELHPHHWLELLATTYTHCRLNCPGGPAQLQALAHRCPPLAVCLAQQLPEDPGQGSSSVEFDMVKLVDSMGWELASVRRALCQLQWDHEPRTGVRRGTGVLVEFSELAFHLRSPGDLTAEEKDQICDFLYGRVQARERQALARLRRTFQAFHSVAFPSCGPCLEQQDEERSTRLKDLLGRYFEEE
The test can be described thus: gel-based helicase unwinding assay with purified protein; confirmed by real-time fluorescence helicase assay; LC-MS/MS adduct at Cys1052 in U2OS cells. In kind it is biochemical.

Compound `CCCCCCCC/C(=C\CCCCCCCC(=O)O)[N+](=O)[O-]` [OA-NO2] showed an IC50 of 252 nM.
